The first data set is described as follows: Photo stabilisation study of COMPOUND (V) in gelatine microcapsules exposed to daylight, HPLC assay. Type of data set: physicochemical. The settings on record: Chocolate Brown dyed gelatine capsules, 88 hours exposure to daylight (8 hours daylight over 11 days). On the procedure: The HPLC system was from Waters comprising of two 510 pumps, a 717 plus Autosampler, a System Interface Module, a Lambda-Max 480 detector and Millennium Chromatography Manager software. Chromatography was achieved on a Zorbax ODS 5 μm C18 analytical column of dimension 4.6×250 mm internal diameter maintained at 35° C. Mobile phases were unmodified water (Milli-Q grade) in reservoir A and unmodified acetonitrile in reservoir B. Linear gradient elution was used with 70 to 90% B over the first 10 minutes, then 100% B for 3 minutes and returning to 70% B over 4 minutes. Injection cycle time was 20 minutes with a flow rate of 2 ml/min. The samples were either dissolved in acetonitrile or diethyl ether and 10 μl volume injected on to the column which was maintained at 35° C. Prior to use, mobile phase were degassed under vacuum with sonication and continuously sparged with helium. The naphthoquinones were detected by measurement of UV absorbance at 269 nm.
A batch of gelatine microcapsules containing 300 mg of COMPOUND (V) in 15 ml of Exxsol® D100 was produced.
The capsule slurry was washed repeatedly with water to remove debris and filtered to obtain a wet cake. An aliquot of the wet cake (11.3 g) was made up to 50 ml and dyed brown with Chocolate Brown (500 mg, equivalent to 10 mg/ml solution). Aliquots (200 μl) of microcapsule slurry of brown and undyed capsules were applied to glass microscope slides in duplicate. The slurry from each batch was spread to form a monolayer of microcapsules on each slide. The slides were air dried in a dark at room temperature (≅21° C.) and exposed to daylight on a south-facing windowsill for various time periods. Two slides from each batch were analysed per time point post of exposure. Unexposed slides stored in the dark were used as time zero reference.
The contents of the capsules were extracted by rupturing the capsules, by rolling a glass rod on the slides, and washing both the rod and the slide with diethyl ether. The extracts were made up to 10 ml and assayed by HPLC.
For the molecule `CC(=O)OC1=C(C(C)CCC[Si](C)(C)C)C(=O)c2ccccc2C1=O` (stereo not shown) [COMPOUND (V)], the “amount of COMPOUND (V) remaining, % of the initial amount” value was around 80%.

The same data set, now with this note: undyed impervious gelatine capsules, 6 hours exposure to daylight.
`CC(=O)OC1=C(C(C)CCC[Si](C)(C)C)C(=O)c2ccccc2C1=O` (stereo not shown) [COMPOUND (V)]: the “amount of COMPOUND (V) remaining, % of the initial amount” value amounted to 60%.

Still in this data set, the particulars now being: undyed impervious gelatine capsules, 16 hours exposure to daylight.
`CC(=O)OC1=C(C(C)CCC[Si](C)(C)C)C(=O)c2ccccc2C1=O` (stereo not shown) [COMPOUND (V)]: the “amount of COMPOUND (V) remaining, % of the initial amount” value came out at 23%.

The data set is the same for the next values; noted with them: undyed impervious gelatine capsules, 40 hours exposure to daylight (8 hours daylight over 5 days).
Regarding `CC(=O)OC1=C(C(C)CCC[Si](C)(C)C)C(=O)c2ccccc2C1=O` (stereo not shown) [COMPOUND (V)], the “amount of COMPOUND (V) remaining, % of the initial amount” value was 6%.

A short description of another data set: Water solubility of UV protection dyes.
Details: not given
Turning to `Cc1cc(O)ccc1C1(c2ccc(O)cc2C)OS(=O)(=O)c2ccccc21` [m-Cresol Purple], the “WATER SOLUBILITY” value is 2 mg/mL.

`O=S(=O)([O-])c1ccc2c(N=Nc3ccccc3)c(O)ccc2c1.[Na+]` [Crocein Orange G]: the “WATER SOLUBILITY” value was 40 mg/mL.

As to `CCN(CC)c1ccc(N=Nc2ccc(S(=O)(=O)[O-])cc2)cc1.[K+]` [Ethyl Orange], the “WATER SOLUBILITY” value was 100 mg/mL.

In the case of `Cc1nn(-c2ccccc2)c([O-])c1N=Nc1cc([N+](=O)[O-])cc(S(=O)(=O)[O-])c1[O-].[Cr+3].[Na+].[OH-]` [Acid Orange 74], the “WATER SOLUBILITY” value amounted to 20 mg/mL.

With `Nc1ccc(N=Nc2cccc(N=Nc3ccc(N)cc3N)c2)c(N)c1` [Bismark Brown Y], the “WATER SOLUBILITY” value amounted to 50 mg/mL.

Take `Cc1cc(N=Nc2ccc(C)c(N=Nc3cc(C)c(N)cc3N)c2)c(N)cc1N` [Bismark Brown R]: the “WATER SOLUBILITY” value was 70 mg/mL.

On to `Cc1cc(N=Nc2cc([N+](=O)[O-])cc([N+](=O)[O-])c2O)c(N)cc1N` [Mordant Brown 4], for which the “WATER SOLUBILITY” value stood at 60 mg/mL.

On to `O=S1(=O)OC(c2ccc(O)c(Cl)c2)(c2ccc(O)c(Cl)c2)c2ccccc21` [Chlorophenol Red], for which the “WATER SOLUBILITY” value amounted to 60 mg/mL.

Consider `CC1=NN(c2ccc(S(=O)(=O)[O-])cc2)C(=O)C1N=Nc1ccc(-c2ccc(N=Nc3ccc(OS(=O)(=O)c4ccc(C)cc4)cc3)c(S(=O)(=O)[O-])c2)cc1.[Na+].[Na+]` (stereo not shown) [Acid Orange 63], for which the “WATER SOLUBILITY” value was determined as 50 mg/mL.

Consider `Nc1cc(N)c(S(=O)(=O)[O-])cc1N=Nc1cc([N+](=O)[O-])ccc1O.[Na+]` [Mordant Brown 33], for which the “WATER SOLUBILITY” value turned out to be 20 mg/mL.

Consider Acid Orange 51, for which the “WATER SOLUBILITY” value amounted to 30 mg/mL.

Consider `CCN(CC)c1ccc(N=Nc2ccccc2C(=O)O)cc1` [Ethyl Red], for which the “WATER SOLUBILITY” value was 3 mg/mL.

For the molecule `Nc1cc(N)c(N=Nc2cccc3c(S(=O)(=O)O)cccc23)cc1N=Nc1cc([N+](=O)[O-])ccc1O.[Na]` [Mordant Brown 1], the “WATER SOLUBILITY” value was determined as 60 mg/mL.

For the molecule `CC(=O)Nc1ccc2nc3c4ccccc4c(=N)cc-3oc2c1.Cl` [Darrow Red], the “WATER SOLUBILITY” value amounted to 1 mg/mL.

Turning to `Nc1cc(N)c(N=Nc2cc([N+](=O)[O-])cc([N+](=O)[O-])c2O)cc1Cl` [Mordant Brown 48], the “WATER SOLUBILITY” value was found to be 40 mg/mL.

Source of the values: patent US20080318788A1, “Microcapsule” (priority 2005, published 2008).
